From patent US6355232B1, “Agent for protecting skin and hair moisture” (Takasago International Corporation, priority 1996, dated 2002)

Tests used:
[1] = Water-barrier function (WBF) test, water-evaporation rate; assay type: physicochemical; settings: for Water-evaporation rate (mg/hr/cm2): ceramide/CL/CS (40/30/30) dispersed with 10% arginine oleate, 37° C., humidity 40%
Experimental: (§1) A sample solution was prepared, based upon the lamellar liquid crystal (LLC) method of various methods for preparing liposome [Colloids and Surfaces, 69, p.125 (1992)]. Appropriate amounts of the lipid mixture (for example, Ce II (2S,3R)/CL/CS, a weight ratio of 40/30/30, corresponding to the LLC region of the phase diagram) were weighed into a test tube, allowed to stand at 135° C. for 10 minutes, cooled down to room temperature and then appropriate amounts of propylene glycol/glycerol (a weight ration of 1/1) were added to the mixture. These samples were left at 135° C. for 10 minutes and then shaken vigorously. This procedure was repeated three times. Then, oleic acid and an aqueous solution of L-arginine were added in turn and shaken (80 to 90° C.). The LLC gel thus obtained was diluted with a buffer of pH 6.86 to give a vesicle solution of a uniform mixture of ceramides.
A sample solution was coated over a supporting membrane covered with a protein at the surface and left under vacuum overnight to remove water thoroughly. The membrane was fixed in the stainless dish containing 20 ml of water and allowed to stand at 37° C. and a humidity of 40%. The evaporated water was calculated per time unit and area unit to determine the water-evaporation rate of WBF.
All samples tested as shown in Table 4 were mixtures of ceramide/CL/CS (40/30/30) and dispersed with 10% arginine oleate.
All samples tested as shown in Table 5 were mixtures of ceramide/CL/CS (40/30/30) and dispersed with 10% arginine oleate.

[2] = Solubility in cosmetic solvents; assay type: physicochemical
Experimental: Solubilities of ceramide-II (hereinafter referred to as CeII) of (2S,3R) type and ceramides of other optical isomers were studied. Ethanol, isopreneglycol, propylenglycol, glycerol, oleic acid, ethyl oleate and isopropyl myristate were used as the cosmetic solvents. Each sample was heated up to about 90° C. with vigorous shaking and cooled down to room temperature and then observed visually. 1.

[3] = Water-holding capacity (WHC) test of sample solution; assay type: physicochemical
Experimental: as §1
A sample solution was applied to a small petri dish and left at 37° C. and a humidity of 40%. The water evaporated as the time lapsed was measured and the ratio of the water remaining in the sample was calculated from the measured value to study WHC.
The samples tested as shown in Table 2 were all mixtures of ceramide/CL/CS (40/30/30) and dispersed with 10% arginine oleate. A control was an aqueous solution of propyleneglycol/glycerol (1/1). […]

[4] = tested on: forearm treated with chloroform/methanol (damaged skin); assay: Transepidermal water-loss (TEWL) test; assay type: in vivo, human; settings: for TEWL (g/m^2/hr): ceramide/CL/SSL (50/20/30) dispersed with 10% arginine oleate, forearm, twice per day for 2 days, data after 10 hours
Experimental: The forearm was treated with chloroform/methanol (1/1), each sample was coated on the site and TEWL was determined (n=4, twice per day, used for 2 days).
All tested samples were the (2S,3R) type and the (2S,3S) type and were mixtures of ceramide/CL/SSL (=sodium stearyllactate) (50/20/30). They were dispersed with 10% arginine oleate.

[5] = Test on conditioner effect to hair (WHC); settings: ceramide/CL/SA (40/20/40) dispersed with 10% arginine oleate, 35° C., humidity 70% overnight
Experimental: Hairs were treated with chloroform/methanol (2/1) and bundles of hairs were coated with samples, rinsed away and then dried under vacuum overnight. They were left at 35° C. and a humidity of 70% overnight. They were weighed to determine the hydrated amount to the dried hairs as WHC.
All tested samples were the (2S,3R) type and the (2S,3S) type and were mixtures of ceramide/CL/SA (=stearic acid) (40/20/40). They were dispersed with 10% arginine oleate.

Row | Compound | Water-evaporation rate (mg/hr/cm2) ([1]; Table 5) | solubility in cosmetic solvents ([2]; compared among Ce II isomers) | level dissolved in ethanol ([2]; ethanol) | Water-holding capacity (%) (After 5 hours) ([3]; ceramide/CL/CS (40/30/30) dispersed with 10% arginine oleate, 37° C., humidity 40%, after 5 hours) | water-holding capacity compared ([3]; versus the racemates, the SP ceramide, etc.) | Water-evaporation rate (mg/hr/cm2) ([1]; Table 4) | capacity to restrain the water evaporation ([1]; versus other types) | TEWL (g/m^2/hr) [4] | TEWL improvement ([4]; compared with uncoated sites / non-treated normal skin) | Water-holding capacity (%) [5] | melting point
1 | CCCCCCCCCCCCCCCCCC(=O)N[C@H](CO)[C@@H](O)CCCCCCCCCCCCCCC [(2R,3S), erythro (2R, 3S) type of ceramide-II, reference compound] | 2.9 mg/hr/cm2 |  |  |  |  |  |  |  |  |  | 
2 | CCCCCCCCCCCCCCCCCC(=O)N[C@@H](CO)[C@H](O)CCCCCCCCCCCCCCC [(2S,3R), ceramide-II of erythro (2S,3R) type] | 2.5 mg/hr/cm2 | lowest solubility | 0.1% | 22.4% | significantly higher water-holding capacity | 2.5 mg/hr/cm2 | more superior to other types | 2.8 g/m^2/hr | can recover to the TEWL value of the non-treated normal skin more rapidly | 8.2% | 95 to 96 °C
3 | CCCCCCCCCCCCCCCCCC(=O)N[C@@H](CO)[C@@H](O)CCCCCCCCCCCCCCC [(2S,3S), threo (2S, 3S) type of ceramide-II] | 3.6 mg/hr/cm2 |  |  |  |  |  |  | 4.1 g/m^2/hr |  |  | 101 °C
